# Assay results from US20050187188A1, “Methods for the treatment of a traumatic central nervous system injury” (Emory University, priority 2000, published 2005).
# “Also recorded” adds a separate entry of the source.
# Assays:
# [1] = tested on: rats with medial frontal cortical contusions; assay: Cerebral edema (brain tissue water content) after medial frontal cortex contusion, Example 1; format: in vivo, rat; conditions: 4 mg/kg in cyclodextrin, i.p. 1 h and s.c. 6 h post-injury; 2, 24 and 72 hours; compared to vehicle
# Method: Contusions to the medical frontal cortex (MFC) using a pneumatic impactor device were generated. Animals were anesthetized by injection of Nembutal (50 mg/kg, i.p) and placed in a stereotaxic apparatus, with body core temperature being maintained with a homeothermic heating blanket system. Using aseptic techniques, a midline incision was made in the scalp, and the fascia retracted to expose the cranium. A centered, bilateral craniotomy was made 3 mm anterior to bregma using a 6 mm diameter trephan. After the removal of the bone, the tip of the impactor was moved to AP:3.0; ML:0.0, checked for adequate clearance, retracted to its elevated position and lowered 3.5 mm DV, so it penetrated the cortex 2 mm. The contusion was made at a velocity of 2.25 m/s with a brain contact time of 0.5 seconds. Following this procedure, the wound cavity was thoroughly cleaned and all bleeding stopped before the fascia and scalp, were sutured closed. In all experiments, the rats' group identity was coded with regard to surgery and treatment to prevent experimenter bias during behavioral testing and later histological examination.
# These experimental solutions were then diluted 1:1 with sterile water for a final concentration of HBC of 22.5%.
# Sprague-Dawley male rats, approximately 90 days of age at the time of surgery, were used. Rats were housed in individual cages, with a 12:12 light:dark cycle. Food and water were provided ad libitum throughout the experiment. Control rats received sham surgeries and the rest received medial frontal cortical contusions as described in the general methods. The sham-operated controls were given vehicle (cyclodextrin). […] Treatment began one hour after the contusion was produced. […] Subsequently, a second subcutaneous injection 6 hours post-injury for absorption that is more gradual. […]
# At 2, 24, and 72 hours the rats were anesthetized, decapitated, and their brains removed quickly from the cranial cavity. […] The brain was placed on a pre-weighed dish and the total weight of the sample was measured. […]
# [2] = tested on: rats with bilateral frontal cortical contusions; assay: Morris water maze after MFC contusion, Example 2; format: in vivo, rat; conditions: 4 mg/kg
# Method: Contusions to the MFC were carried out as described in Example 1.
# (§1) These injections started at one hour post-injury with an intraperitoneal injection, and then were repeated at 6, 24, 48, 72, 96, and 120 hours post-injury with subcutaneous injections.
# The Morris Water Maize (MWM) consisted of a circular tank with a diameter of 133 cm filled with opaque water (20±1° C.; non-toxic Artista™ nontoxic white tempura paint) to a depth of 64 cm (23 cm from top of tank). A platform (11 cm×11 cm) was submerged to a depth of 2 cm and placed approximately 28 cm from the wall of the pool in the center of the northeast quadrant. The position of the platform will remain constant throughout the experiment. MWM testing began seven days after surgery. Each animal was tested for a total of 10 days (2 trials per day) in two 5-day blocks. At the start of each trial, the experimenter placed a rat into the pool at one of four starting positions, and at the same time, activate the computer-interfaced camera tracking system. Each rat was allowed to swim in the pool until it reached the platform or until 90 seconds has passed. […] The performance of each rat was measured in terms of latency to platform, length of path to platform, and swim strategy, i.e., percent of total time spent in the outer versus inner annuli.
# [3] = tested on: rats with bilateral frontal cortical contusions; assay: Histological count of ChAT positive cells in nucleus basalis magnocellularis, motor behavior and cavity size, Example 2; format: in vivo, rat; conditions: 4 mg/kg
# Method: A single asterisk (*) indicates a significant difference from sham, a double asterisk (**) indicates a significant difference from both sham and lesion controls.
# as §1
# To determine the relationship between neural cell numbers and behavior, the number of neurons and glia were counted to determine the correlative relationship between the survival of these cells and behavioral performance (FIG. 3).
# [4] = tested on: GABA receptor; conditions: independent of the benzodiazepines; cited from earlier work
# [5] = tested on: sigma receptor; conditions: cited from earlier work
# [6] = tested on: cell death; conditions: by attenuating release of inflammatory cytokines; cited from earlier work
smiles,measurement,setting,value
"CC(=O)[C@H]1CC[C@H]2[C@@H]3CC[C@H]4C[C@H](O)CC[C@]4(C)[C@H]3CC[C@]12C [allopregnanolone, allopregnan-3α, or 3β-ol-20-one]",cerebral edema,[1],significantly reduced cerebral edema
same,Morris water maze performance vs injured rats given vehicle,"[2]; injections from 1 h to 120 h post-injury, last three blocks of testing, p<0.05",improved performance on an acquisition task; also recorded: significantly outperformed the injured rats given vehicle
same,performance scores on the spatial learning task vs other groups,[2]; all days of testing,better performance scores on the spatial learning task than the other groups
same,necrotic cavity size,[3],no differences
same,spontaneous motor behavior,[3],no differences
same,number of ChAT positive cells in the nucleus basalis magnocellularis,[3]; vs untreated controls,more remaining viable neurons in this structure than untreated controls
same,modulation of the GABA receptor,[4],positive modulators of the GABA receptor
same,activity at the sigma receptor,[5],antagonists at the sigma receptor
same,cell death in vitro,[6],prevent cell death in vitro
CC(=O)[C@H]1CC[C@H]2[C@@H]3CC[C@@H]4C[C@@H](O)CC[C@]4(C)[C@H]3CC[C@]12C [epipregnanolone],cerebral edema,[1],intermediate between injured controls and the allopregnanolone-treated injured rats
same,modulation of the GABA receptor,[4],positive modulators of the GABA receptor
same,activity at the sigma receptor,[5],antagonists at the sigma receptor
